# Data: ChEMBL document CHEMBL1201862, “PubChem BioAssay data set” (2004)
# Active and inactive are the calls of the source.
# Columns and labels:
# [1] = molecular target: T1, Histone-lysine N-methyltransferase NSD2 (Homo sapiens, UniProt O96028); format: biochemical
# T1 sequence (O96028 whole entry): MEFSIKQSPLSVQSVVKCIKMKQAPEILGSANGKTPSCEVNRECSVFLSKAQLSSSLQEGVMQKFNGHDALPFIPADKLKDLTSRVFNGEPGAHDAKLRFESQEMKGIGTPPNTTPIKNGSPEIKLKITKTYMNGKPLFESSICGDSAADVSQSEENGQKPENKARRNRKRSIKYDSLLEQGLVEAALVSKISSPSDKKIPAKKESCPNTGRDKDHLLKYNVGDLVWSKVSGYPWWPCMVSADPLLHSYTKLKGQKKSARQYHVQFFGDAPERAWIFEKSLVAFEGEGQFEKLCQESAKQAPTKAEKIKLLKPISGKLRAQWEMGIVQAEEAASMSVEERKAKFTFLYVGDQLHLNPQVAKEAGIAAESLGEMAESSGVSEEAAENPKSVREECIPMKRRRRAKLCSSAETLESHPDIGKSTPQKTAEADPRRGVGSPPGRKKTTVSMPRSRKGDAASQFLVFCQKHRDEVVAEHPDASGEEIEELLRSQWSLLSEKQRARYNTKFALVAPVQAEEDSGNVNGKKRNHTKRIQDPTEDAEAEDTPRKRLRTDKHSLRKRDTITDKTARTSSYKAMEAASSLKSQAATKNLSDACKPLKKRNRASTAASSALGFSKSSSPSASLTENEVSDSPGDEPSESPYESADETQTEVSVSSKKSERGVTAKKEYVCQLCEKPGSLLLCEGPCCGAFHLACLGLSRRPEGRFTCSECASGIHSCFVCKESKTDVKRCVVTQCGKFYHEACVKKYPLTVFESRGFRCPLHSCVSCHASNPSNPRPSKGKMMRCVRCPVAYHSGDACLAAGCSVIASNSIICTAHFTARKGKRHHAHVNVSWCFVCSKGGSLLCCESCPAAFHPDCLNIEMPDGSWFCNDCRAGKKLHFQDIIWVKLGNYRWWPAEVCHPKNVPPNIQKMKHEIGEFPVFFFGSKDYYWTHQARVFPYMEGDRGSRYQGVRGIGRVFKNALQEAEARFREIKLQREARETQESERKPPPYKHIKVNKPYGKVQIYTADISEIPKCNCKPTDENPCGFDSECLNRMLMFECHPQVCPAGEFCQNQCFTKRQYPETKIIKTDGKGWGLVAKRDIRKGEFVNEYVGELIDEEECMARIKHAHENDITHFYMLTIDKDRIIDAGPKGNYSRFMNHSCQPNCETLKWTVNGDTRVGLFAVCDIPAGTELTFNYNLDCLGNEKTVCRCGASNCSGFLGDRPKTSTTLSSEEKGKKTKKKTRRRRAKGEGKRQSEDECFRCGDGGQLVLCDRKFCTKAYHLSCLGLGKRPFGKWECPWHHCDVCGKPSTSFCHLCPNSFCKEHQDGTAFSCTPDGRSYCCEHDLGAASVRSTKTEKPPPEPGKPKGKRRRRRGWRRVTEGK
# [2] = control 3'UTR Renilla luciferase suppression, dose response, counter-screen for Shn3 inhibitor project, cell-based, Clone20-Shn3RL, cherry-picked (AID 624133); format: functional
# [3] = test system: HEK293; assay: NOD1 signaling inhibitors, primary screen, cell-based, luminescence, uHTS (AID 1578); format: functional; details: Homo sapiens
# [4] = Shn3 3'UTR reporter inhibitors, dose response, cell-based, Clone20 osteoblasts, firefly luciferase, cherry-picked (AID 624132); format: functional;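 note: firefly luciferase luminescence from reporter carrying the Shn3 3'UTR in osteoblasts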
# [5] = inhibitors of firefly luciferase expression or activity, dose response, H4 neuroglioma cells, luminescence (AID 1990); format: functional, cell-based
# [6] = molecular target: 3-phosphoinositide-dependent protein kinase 1 (Homo sapiens, UniProt O15530); format: functional;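 note: value comes from the Navigating the Kinome panel, PDPK1 member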
# [7] = molecular target: Mitogen-activated protein kinase 9 (Homo sapiens, UniProt P45984); format: functional;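 note: value from a kinome panel profiling assay, MAPK9 panel entry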
# [8] = molecular target: Cyclin-dependent kinase 1 (Homo sapiens, UniProt P06493); format: functional;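 note: Kinome-wide panel profiling, with the target listed as panel member CDC2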
# [9] = molecular target: Cyclin-dependent kinase 8 (Homo sapiens, UniProt P49336); assay: Navigating the Kinome. Panel member name: CDK8; format: functional
# [10] = molecular target: Lymphokine-activated killer T-cell-originated protein kinase (Homo sapiens, UniProt Q96KB5); format: functional;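 note: value comes from a kinase panel screen in which TOPK was one of the panel members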
# Sequence of Lymphokine-activated killer T-cell-originated protein kinase (Q96KB5 whole entry): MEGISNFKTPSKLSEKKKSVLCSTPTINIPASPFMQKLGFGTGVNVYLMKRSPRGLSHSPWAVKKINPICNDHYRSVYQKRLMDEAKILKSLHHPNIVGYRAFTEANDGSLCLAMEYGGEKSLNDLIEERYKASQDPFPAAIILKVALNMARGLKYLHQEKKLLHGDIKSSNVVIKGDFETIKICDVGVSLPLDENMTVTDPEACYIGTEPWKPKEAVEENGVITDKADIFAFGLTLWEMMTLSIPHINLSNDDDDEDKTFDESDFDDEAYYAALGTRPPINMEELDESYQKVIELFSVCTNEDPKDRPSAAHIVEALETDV
# [11] = molecular target: Mitogen-activated protein kinase 12 (Homo sapiens, UniProt P53778); format: functional;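 note: measured as one member of a kinome-wide kinase profiling panel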
# Sequence of Mitogen-activated protein kinase 12 (P53778 whole entry, canonical isoform): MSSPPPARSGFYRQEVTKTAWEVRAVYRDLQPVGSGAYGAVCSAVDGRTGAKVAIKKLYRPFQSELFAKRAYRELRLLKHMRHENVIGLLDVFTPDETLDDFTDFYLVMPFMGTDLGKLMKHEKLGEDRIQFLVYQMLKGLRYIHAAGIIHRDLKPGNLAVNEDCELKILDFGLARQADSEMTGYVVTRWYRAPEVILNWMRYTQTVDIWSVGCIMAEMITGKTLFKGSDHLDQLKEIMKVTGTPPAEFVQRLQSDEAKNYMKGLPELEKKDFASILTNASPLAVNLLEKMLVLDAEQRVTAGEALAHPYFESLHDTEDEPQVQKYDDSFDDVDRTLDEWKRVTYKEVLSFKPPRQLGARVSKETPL
# [12] = molecular target: Casein kinase I isoform gamma-1 (Homo sapiens, UniProt Q9HCP0); format: functional;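 note: measured as the CSNK1G1 member of a kinome profiling panel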
# [13] = molecular target: Interleukin-1 receptor-associated kinase 4 (Homo sapiens, UniProt Q9NWZ3); format: functional
# Sequence of Interleukin-1 receptor-associated kinase 4 (Q9NWZ3 whole entry): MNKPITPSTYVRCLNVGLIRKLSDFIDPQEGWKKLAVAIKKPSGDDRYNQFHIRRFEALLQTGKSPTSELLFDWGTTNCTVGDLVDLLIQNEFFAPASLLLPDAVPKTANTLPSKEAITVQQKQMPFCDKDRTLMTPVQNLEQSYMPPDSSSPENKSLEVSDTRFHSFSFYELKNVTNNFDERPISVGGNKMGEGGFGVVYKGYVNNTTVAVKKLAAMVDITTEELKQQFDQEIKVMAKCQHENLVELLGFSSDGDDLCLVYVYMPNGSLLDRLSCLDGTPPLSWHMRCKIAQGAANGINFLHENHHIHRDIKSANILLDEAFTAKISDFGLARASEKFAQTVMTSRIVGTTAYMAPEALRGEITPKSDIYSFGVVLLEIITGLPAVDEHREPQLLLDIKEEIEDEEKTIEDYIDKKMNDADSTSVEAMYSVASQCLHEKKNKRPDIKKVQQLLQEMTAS
# [14] = molecular target: Dual specificity tyrosine-phosphorylation-regulated kinase 1B (Homo sapiens, UniProt Q9Y463); assay: Navigating the Kinome. Panel member name: DYRK1B; format: functional
# [15] = molecular target: ALK tyrosine kinase receptor (Homo sapiens, UniProt Q9UM73); format: functional;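 note: ALK tested as one member of a kinase panel screen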
# Sequence of ALK tyrosine kinase receptor (Q9UM73 whole entry): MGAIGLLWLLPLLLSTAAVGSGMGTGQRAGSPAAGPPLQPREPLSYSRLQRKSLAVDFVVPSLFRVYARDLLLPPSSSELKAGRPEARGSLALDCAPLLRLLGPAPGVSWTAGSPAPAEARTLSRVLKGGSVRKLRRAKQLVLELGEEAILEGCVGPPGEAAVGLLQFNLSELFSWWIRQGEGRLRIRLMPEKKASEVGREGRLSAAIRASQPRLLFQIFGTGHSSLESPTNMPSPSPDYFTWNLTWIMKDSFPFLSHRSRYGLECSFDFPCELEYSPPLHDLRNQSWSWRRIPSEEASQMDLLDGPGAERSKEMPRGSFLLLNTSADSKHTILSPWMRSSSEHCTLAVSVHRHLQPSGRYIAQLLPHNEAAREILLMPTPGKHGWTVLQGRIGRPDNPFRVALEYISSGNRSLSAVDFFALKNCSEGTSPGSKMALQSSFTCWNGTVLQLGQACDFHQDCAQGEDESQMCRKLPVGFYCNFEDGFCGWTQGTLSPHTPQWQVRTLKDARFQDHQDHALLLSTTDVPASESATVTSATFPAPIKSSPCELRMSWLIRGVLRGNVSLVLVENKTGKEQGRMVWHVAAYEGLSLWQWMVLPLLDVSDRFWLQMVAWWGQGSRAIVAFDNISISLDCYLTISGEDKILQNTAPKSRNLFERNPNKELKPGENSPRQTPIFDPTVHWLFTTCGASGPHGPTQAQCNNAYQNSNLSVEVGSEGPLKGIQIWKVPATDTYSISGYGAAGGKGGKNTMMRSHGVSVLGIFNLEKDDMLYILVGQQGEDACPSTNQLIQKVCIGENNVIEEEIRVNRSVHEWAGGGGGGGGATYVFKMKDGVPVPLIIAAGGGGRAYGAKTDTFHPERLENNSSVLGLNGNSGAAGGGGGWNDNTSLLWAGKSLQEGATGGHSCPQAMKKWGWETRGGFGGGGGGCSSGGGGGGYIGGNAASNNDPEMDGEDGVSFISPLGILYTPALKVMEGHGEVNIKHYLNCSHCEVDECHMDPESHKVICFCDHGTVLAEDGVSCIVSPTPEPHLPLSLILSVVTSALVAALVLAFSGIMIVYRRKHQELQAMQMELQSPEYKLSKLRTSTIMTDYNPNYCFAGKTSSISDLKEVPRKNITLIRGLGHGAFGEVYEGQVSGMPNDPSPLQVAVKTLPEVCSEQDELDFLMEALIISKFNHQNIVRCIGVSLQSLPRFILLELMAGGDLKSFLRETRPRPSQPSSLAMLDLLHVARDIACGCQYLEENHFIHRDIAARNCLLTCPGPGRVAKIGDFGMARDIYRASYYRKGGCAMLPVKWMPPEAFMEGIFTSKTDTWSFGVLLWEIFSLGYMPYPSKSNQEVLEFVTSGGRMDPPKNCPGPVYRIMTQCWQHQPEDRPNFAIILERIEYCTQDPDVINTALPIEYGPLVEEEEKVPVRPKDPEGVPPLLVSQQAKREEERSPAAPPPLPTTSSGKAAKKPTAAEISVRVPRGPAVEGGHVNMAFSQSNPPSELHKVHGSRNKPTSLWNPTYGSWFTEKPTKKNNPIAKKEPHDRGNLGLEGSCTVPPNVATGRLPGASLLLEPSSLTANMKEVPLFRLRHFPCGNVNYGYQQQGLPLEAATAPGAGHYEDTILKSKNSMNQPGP
# [16] = molecular target: Serine/threonine-protein kinase Chk1 (Homo sapiens, UniProt O14757); format: functional;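 note: measured as one member of a kinome-wide kinase profiling panel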
# Sequence of Serine/threonine-protein kinase Chk1 (O14757 whole entry): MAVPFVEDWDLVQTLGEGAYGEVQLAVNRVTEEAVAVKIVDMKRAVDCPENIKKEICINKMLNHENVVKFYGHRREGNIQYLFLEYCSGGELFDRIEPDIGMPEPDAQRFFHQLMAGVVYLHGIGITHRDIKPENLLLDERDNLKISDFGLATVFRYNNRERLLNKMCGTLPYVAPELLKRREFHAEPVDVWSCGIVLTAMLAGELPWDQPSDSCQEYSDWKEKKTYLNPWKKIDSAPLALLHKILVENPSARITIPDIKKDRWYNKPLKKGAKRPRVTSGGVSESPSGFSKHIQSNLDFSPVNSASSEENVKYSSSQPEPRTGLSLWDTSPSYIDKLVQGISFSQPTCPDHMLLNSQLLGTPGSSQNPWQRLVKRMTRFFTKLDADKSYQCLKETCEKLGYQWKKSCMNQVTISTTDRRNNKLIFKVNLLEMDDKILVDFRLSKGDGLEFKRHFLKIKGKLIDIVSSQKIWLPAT
# [17] = molecular target: Cyclin-dependent kinase 7 (Homo sapiens, UniProt P50613); format: functional;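 note: value comes from a kinome-wide kinase profiling panel in which CDK7 is one member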
# [18] = molecular target: Maternal embryonic leucine zipper kinase (Homo sapiens, UniProt Q14680); format: functional
# Sequence of Maternal embryonic leucine zipper kinase (Q14680 whole entry): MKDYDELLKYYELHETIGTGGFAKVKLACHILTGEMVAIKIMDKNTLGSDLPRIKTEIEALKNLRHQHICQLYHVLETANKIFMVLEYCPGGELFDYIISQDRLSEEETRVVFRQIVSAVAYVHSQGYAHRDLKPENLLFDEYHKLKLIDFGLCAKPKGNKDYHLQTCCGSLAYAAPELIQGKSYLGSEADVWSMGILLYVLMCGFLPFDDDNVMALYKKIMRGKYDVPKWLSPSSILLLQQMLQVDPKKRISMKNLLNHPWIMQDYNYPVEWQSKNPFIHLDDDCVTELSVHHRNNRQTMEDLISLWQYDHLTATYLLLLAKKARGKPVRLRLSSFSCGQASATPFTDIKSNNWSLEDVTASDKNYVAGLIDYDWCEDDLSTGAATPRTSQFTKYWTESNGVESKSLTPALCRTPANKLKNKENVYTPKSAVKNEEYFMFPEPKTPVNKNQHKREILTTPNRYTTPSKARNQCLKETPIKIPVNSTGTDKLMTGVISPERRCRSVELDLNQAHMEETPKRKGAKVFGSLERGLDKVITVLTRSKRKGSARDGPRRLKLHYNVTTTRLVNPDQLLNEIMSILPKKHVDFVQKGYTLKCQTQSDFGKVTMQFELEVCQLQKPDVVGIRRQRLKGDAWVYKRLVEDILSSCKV
# [19] = molecular target: Activated CDC42 kinase 1 (Homo sapiens, UniProt Q07912); assay: Navigating the Kinome. Panel member name: ACK1; format: functional
# Sequence of Activated CDC42 kinase 1 (Q07912 whole entry): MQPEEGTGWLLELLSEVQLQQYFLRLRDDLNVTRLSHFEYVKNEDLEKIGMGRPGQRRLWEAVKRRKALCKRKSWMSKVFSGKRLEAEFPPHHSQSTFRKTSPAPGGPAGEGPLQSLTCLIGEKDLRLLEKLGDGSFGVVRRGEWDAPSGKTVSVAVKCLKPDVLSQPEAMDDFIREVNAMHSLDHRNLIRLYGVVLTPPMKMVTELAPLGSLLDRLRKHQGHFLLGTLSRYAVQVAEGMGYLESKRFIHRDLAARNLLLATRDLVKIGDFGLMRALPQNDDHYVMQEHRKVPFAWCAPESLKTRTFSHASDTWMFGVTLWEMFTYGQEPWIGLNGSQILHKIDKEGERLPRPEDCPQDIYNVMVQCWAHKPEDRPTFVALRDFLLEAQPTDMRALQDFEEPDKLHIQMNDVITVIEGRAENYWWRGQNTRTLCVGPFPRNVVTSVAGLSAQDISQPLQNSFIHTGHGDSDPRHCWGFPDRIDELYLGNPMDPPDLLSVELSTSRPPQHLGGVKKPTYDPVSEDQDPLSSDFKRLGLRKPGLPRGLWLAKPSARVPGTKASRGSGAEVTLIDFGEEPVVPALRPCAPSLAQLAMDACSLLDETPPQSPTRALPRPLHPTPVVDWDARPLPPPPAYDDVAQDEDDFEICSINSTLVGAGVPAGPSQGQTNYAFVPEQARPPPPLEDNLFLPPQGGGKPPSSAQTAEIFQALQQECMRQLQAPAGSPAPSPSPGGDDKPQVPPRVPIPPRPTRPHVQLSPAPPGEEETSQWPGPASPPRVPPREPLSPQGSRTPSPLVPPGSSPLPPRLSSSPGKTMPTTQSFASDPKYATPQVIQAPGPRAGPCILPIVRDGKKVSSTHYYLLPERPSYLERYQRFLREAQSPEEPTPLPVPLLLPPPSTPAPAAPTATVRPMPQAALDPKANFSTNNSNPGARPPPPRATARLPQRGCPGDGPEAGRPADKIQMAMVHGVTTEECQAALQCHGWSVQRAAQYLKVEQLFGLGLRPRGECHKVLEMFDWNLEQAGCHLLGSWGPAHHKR
# [20] = molecular target: cAMP-dependent protein kinase catalytic subunit alpha (Homo sapiens, UniProt P17612); format: functional
# [21] = molecular target: Envelope glycoprotein gp160 (Human immunodeficiency virus 1, UniProt Q6QLK5); assay: inhibitors of HIV fusion peptide binding, primary screen, biochemical, uHTS, fluorescence dequenching (AID 1986)
# [22] = molecular target: T2, Streptokinase A (Streptococcus pyogenes serotype M1, UniProt P10520); assay: S. pyogenes streptokinase expression inhibitors, potency, dose response, plasminogen activation absorbance, OD405 (AID 1914); format: functional, Streptococcus pyogenes M1 GAS;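 note: secreted streptokinase activity via plasminogen activation per viability signal from cell pellet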
# T2 sequence (P10520 whole entry): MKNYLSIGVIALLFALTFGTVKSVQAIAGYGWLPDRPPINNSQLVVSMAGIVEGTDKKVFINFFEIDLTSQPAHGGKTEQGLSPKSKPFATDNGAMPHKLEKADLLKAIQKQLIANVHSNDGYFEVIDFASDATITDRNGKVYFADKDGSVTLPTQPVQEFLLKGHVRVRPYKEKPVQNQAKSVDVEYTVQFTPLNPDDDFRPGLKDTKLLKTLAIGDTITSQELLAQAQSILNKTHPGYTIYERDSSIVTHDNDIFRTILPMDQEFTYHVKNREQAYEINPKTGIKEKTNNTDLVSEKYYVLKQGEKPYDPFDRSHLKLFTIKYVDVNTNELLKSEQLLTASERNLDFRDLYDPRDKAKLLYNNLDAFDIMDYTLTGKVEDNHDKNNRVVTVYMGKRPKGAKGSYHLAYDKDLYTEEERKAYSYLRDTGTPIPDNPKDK
smiles,measurement,setting,value
O=C1C=C(N2CCOCC2)c2ccccc2C1=O,AC50,[1],1.38 µM (active)
same,AC50,[2],8.28 µM (active)
same,EC50,[3],8.79 µM (active)
same,AC50,[4],7.16 µM (active)
same,EC50,[5],8.37 µM (active)
N#Cc1ccc2[nH]c(O)c(-c3ccc(CN4CCOCC4)cn3)c2c1 [AZD-1080],Ki,[6],> 3.98 µM (inactive)
same,Ki,[7],> 3.98 µM (inactive)
same,Ki,[8],2 µM (active)
same,Ki,[9],> 3.98 µM (inactive)
same,Ki,[10],> 10 µM (inactive)
same,Ki,[11],> 6.31 µM (inactive)
same,Ki,[12],> 6.31 µM (inactive)
same,Ki,[13],> 10 µM (inactive)
same,Ki,[14],1 µM (active)
same,Ki,[15],> 3.98 µM (inactive)
same,Ki,[16],> 7.94 µM (inactive)
same,Ki,[17],1 µM (active)
same,Ki,[18],> 1.58 µM (inactive)
same,Ki,[19],> 3.98 µM (inactive)
same,Ki,[20],> 3.16 µM (inactive)
CCc1oc2ccccc2c1C(=O)c1cc(Br)c(O)c(Br)c1 [BENZBROMARONE],IC50,[21],12.8 µM (active)
same,EC50,[22],17.2 µM (inconclusive)
